Results taken from patent publication US20120283207A1, “ANTIBACTERIAL AMINOGLYCOSIDE ANALOGS” (Achaogen, Inc., priority 2009, published 2012).
In brackets after ≈: the same amount, converted by molar mass.

Key:
P. aeruginosa ATCC 27853 = assay: MIC assay, CLSI broth microdilution, APAE001; assay type: cell-based; details: Pseudomonas aeruginosa; APAE001 is ATCC27853; Mueller Hinton Broth, 35 C, 20 hours
Experimental: (§1) Minimum inhibitory concentrations (MIC) were determined by reference Clinical and Laboratory Standards Institute (CLSI) broth microdilution methods per M7-A7 [2006]. Quality control ranges utilizing E. coli ATCC 25922, P. aeruginosa ATCC 27853 and S. aureus ATCC 29213, and interpretive criteria for comparator agents were as published in CLSI M100-S17 [2007]. Briefly, serial two-fold dilutions of the test compounds were prepared at 2× concentration in Mueller Hinton Broth. The compound dilutions were mixed in 96-well assay plates in a 1:1 ratio with bacterial inoculum. The inoculum was prepared by suspension of a colony from an agar plate that was prepared the previous day. Bacteria were suspended in sterile saline and added to each assay plate to obtain a final concentration of 5×10^5 CFU/mL. The plates were incubated at 35 C for 20 hours in ambient air.

E. coli ATCC 25922 = assay: MIC assay, CLSI broth microdilution, AECO001; assay type: cell-based; details: Escherichia coli; AECO001 is ATCC25922; Mueller Hinton Broth, 35 C, 20 hours
Experimental: as §1

MIC (P. aeruginosa ATCC 27853) [µg/mL] | MIC (E. coli ATCC 25922) [µg/mL] | Compound
1 to 16 (≈ 1.68 to 26.9 µM) | 1 to 16 (≈ 1.68 to 26.9 µM) | CNCC1=CC[C@@H](N)[C@@H](O[C@H]2[C@H](O[C@@H]3O[C@H](CO)[C@@H](O[C@H]4OC(CN)[C@@H](O)[C@H](O)[C@H]4N)[C@H]3O)[C@@H](O)[C@H](N)C[C@@H]2N)O1 (stereo partly shown) [4/3, 6′-N-methyl-4′,5′-dehydro-3′-deoxy-neomycin]
≤ 1 | ≤ 1 | NCC[C@H](O)C(=O)N[C@@H]1C[C@H](N)[C@@H](O[C@H]2OC(CN)=CC[C@H]2N)[C@H](O[C@@H]2O[C@H](CO)[C@@H](O[C@H]3O[C@@H](CN)[C@@H](O)[C@H](O)[C@H]3N)[C@H]2O)[C@H]1O [5/6, 1-(2(S)-hydroxy-4-amino-butyryl)-4′,5′-dehydro-3′-deoxy-neomycin]

Continued, compound first:

Compound | MIC (P. aeruginosa ATCC 27853) [µg/mL] | MIC (E. coli ATCC 25922) [µg/mL]
NCC1=CC[C@@H](N)[C@@H](O[C@H]2[C@H](O[C@@H]3O[C@H](CO)[C@@H](O[C@H]4OC(CN)[C@@H](O)[C@H](O)[C@H]4N)[C@H]3O)[C@@H](O)[C@H](N)C[C@@H]2N)O1 (stereo partly shown) [1/10, 4′,5′-dehydro-3′-deoxy-neomycin] | ≤ 1 | 1 to 16 (≈ 1.72 to 27.6 µM)
NCC1O[C@H](O[C@H]2[C@@H](O)[C@H](O[C@@H]3[C@@H](O)[C@H](N)C[C@H](N)[C@H]3O[C@H]3OC(CO)=CC[C@H]3N)O[C@@H]2CO)[C@H](N)[C@@H](O)[C@@H]1O (stereo partly shown) [2/3, 4′,5′-dehydro-3′-deoxy-paromomycin] | > 16 | > 16
CNCC1=C[C@H](O)[C@@H](N)[C@@H](O[C@H]2[C@H](O[C@@H]3O[C@H](CO)[C@@H](O[C@H]4OC(CN)[C@@H](O)[C@H](O)[C@H]4N)[C@H]3O)[C@@H](O)[C@H](N)C[C@@H]2N)O1 (stereo partly shown) [3/3, 6′-N-methyl-4′,5′-dehydro-neomycin] | ≤ 1 | 1 to 16 (≈ 1.64 to 26.2 µM)
